Results published in the NIST ThermoML archive (doi:10.1016/j.tca.2018.01.023).
Numbers after ± are expanded uncertainties.

Test: molar heat capacity at constant pressure
Details: 101.33 kPa, Crystal, Small sample (50 mg) DSC

[Ca+2].[O]=[Mo](=[O])([O-])[O-] [calcium molybdate(VI)]
Details | molar heat capacity at constant pressure [J/K/mol]
495.4 K | 135.5 ± 5.7
495.8 K | 135.8 ± 5.8
496.4 K | 135.6 ± 5.8
496.8 K | 135.8 ± 5.8
497.4 K | 135.6 ± 5.8
497.8 K | 135.9 ± 5.8
498.4 K | 135.7 ± 5.8
498.8 K | 136 ± 5.8
499.4 K | 135.8 ± 5.8
499.8 K | 136 ± 5.8
500 K | 136 ± 5.8
500.4 K | 135.9 ± 5.8
500.8 K | 136.1 ± 5.8
501.4 K | 136 ± 5.8
501.8 K | 136.1 ± 5.8
502.4 K | 136.1 ± 5.8
502.8 K | 136.1 ± 5.8
503.4 K | 136.2 ± 5.8
503.8 K | 136.2 ± 5.8
504.4 K | 136.2 ± 5.8
504.8 K | 136.2 ± 5.8
505.4 K | 136.3 ± 5.8
505.8 K | 136.3 ± 5.8
506.4 K | 136.3 ± 5.8
506.8 K | 136.4 ± 5.8
507.4 K | 136.4 ± 5.8
507.8 K | 136.5 ± 5.8
508.4 K | 136.5 ± 5.8
508.8 K | 136.5 ± 5.8
509.4 K | 136.6 ± 5.8
509.8 K | 136.5 ± 5.8
510 K | 136.6 ± 5.8
510.4 K | 136.6 ± 5.8
510.8 K | 136.6 ± 5.8
511.4 K | 136.7 ± 5.8
511.8 K | 136.7 ± 5.8
512.4 K | 136.8 ± 5.8
512.8 K | 136.8 ± 5.8
513.4 K | 136.9 ± 5.8
513.8 K | 136.9 ± 5.8
514.4 K | 137 ± 5.8
514.8 K | 136.9 ± 5.8
515.4 K | 137.1 ± 5.8
515.8 K | 137 ± 5.8
516.4 K | 137.1 ± 5.8
516.8 K | 137 ± 5.8
517.4 K | 137.2 ± 5.8
517.8 K | 137.1 ± 5.8
518.4 K | 137.3 ± 5.8
518.8 K | 137.2 ± 5.8
519.4 K | 137.3 ± 5.8
519.8 K | 137.3 ± 5.8
520 K | 137.3 ± 5.8
520.4 K | 137.4 ± 5.8
520.8 K | 137.3 ± 5.8
521.4 K | 137.5 ± 5.8
521.8 K | 137.4 ± 5.8
522.4 K | 137.6 ± 5.8
522.8 K | 137.5 ± 5.8
523.4 K | 137.7 ± 5.8
523.8 K | 137.6 ± 5.8
524.4 K | 137.7 ± 5.8
524.8 K | 137.6 ± 5.8
525.4 K | 137.8 ± 5.8
525.8 K | 137.7 ± 5.8
526.4 K | 137.8 ± 5.8
526.8 K | 137.7 ± 5.8
527.4 K | 137.9 ± 5.9
527.8 K | 137.7 ± 5.8
528.4 K | 137.9 ± 5.9
528.9 K | 137.8 ± 5.8
529.4 K | 138 ± 5.9
529.9 K | 137.8 ± 5.8
530 K | 137.9 ± 5.9
530.4 K | 138.1 ± 5.9
530.9 K | 137.8 ± 5.8
531.4 K | 138.1 ± 5.9
531.9 K | 137.8 ± 5.8
532.4 K | 138.2 ± 5.9
532.9 K | 137.9 ± 5.9
533.4 K | 138.2 ± 5.9
533.9 K | 138 ± 5.9
534.4 K | 138.3 ± 5.9
534.9 K | 138.1 ± 5.9
535.4 K | 138.3 ± 5.9
535.9 K | 138.2 ± 5.9
536.4 K | 138.4 ± 5.9
536.9 K | 138.3 ± 5.9
537.4 K | 138.5 ± 5.9
537.9 K | 138.4 ± 5.9
538.4 K | 138.5 ± 5.9
538.9 K | 138.5 ± 5.9
539.4 K | 138.6 ± 5.9
539.9 K | 138.7 ± 5.9
540 K | 138.4 ± 5.9
540.4 K | 138.7 ± 5.9
540.9 K | 138.8 ± 5.9
541.4 K | 138.7 ± 5.9
541.9 K | 138.8 ± 5.9
542.4 K | 138.8 ± 5.9
542.9 K | 138.8 ± 5.9
543.4 K | 138.8 ± 5.9
543.9 K | 138.9 ± 5.9
544.4 K | 138.9 ± 5.9
